Source: patent US20100216753A1, “CONTROLLED RELEASE OF DRUGS INTO/THROUGH THE SKIN” (Galderma S.A., priority 2005, published 2010)

Test: Distribution of the drug in human skin (Franz' cells)
Format: in vitro ADME
Conditions: 16 hours after application on a human skin (Franz' cells)

For `CCC(=O)O[C@]1(C(=O)CCl)[C@@H](C)C[C@H]2[C@@H]3CCC4=CC(=O)C=C[C@]4(C)[C@@]3(F)[C@@H](O)C[C@@]21C` [Clobetasol-17-propionate], the “Skin distribution of the drug” value was “accumulate in the Stratum corneum”.
